IC50 and Ki data for ten molecules are collected here from ChEMBL document CHEMBL1136283, “Synthesis and glycosidase inhibitory activity of some N-substituted 6-deoxy-5a-carba-beta-DL- and L-galactopyranosylamines” (Bioorg Med Chem Lett, 2003).

The target of one assay is T1, Beta-galactosidase (Bos taurus, UniProt Q58D55).
T1 sequence (Q58D55 whole entry): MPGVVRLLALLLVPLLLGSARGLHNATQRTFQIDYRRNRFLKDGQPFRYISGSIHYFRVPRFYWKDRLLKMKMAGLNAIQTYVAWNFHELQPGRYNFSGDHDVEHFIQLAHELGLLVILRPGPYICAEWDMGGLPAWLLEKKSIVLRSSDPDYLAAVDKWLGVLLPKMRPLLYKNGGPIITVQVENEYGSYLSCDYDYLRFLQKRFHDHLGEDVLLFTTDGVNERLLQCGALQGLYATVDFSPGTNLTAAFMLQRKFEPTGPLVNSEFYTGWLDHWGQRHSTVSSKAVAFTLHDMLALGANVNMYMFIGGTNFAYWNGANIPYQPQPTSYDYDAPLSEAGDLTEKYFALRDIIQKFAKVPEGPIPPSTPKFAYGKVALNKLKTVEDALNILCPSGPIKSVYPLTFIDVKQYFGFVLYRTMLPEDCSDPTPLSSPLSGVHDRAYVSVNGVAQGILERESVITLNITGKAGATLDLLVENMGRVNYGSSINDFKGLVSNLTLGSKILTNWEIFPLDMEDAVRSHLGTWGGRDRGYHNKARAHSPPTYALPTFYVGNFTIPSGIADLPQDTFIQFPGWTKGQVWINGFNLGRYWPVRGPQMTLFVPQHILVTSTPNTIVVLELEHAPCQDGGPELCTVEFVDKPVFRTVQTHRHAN
Kind of assay: Inhibitory activity against beta-galactosidase in bovine liver. It is filed as tissue-based.

The nature of assay [1]: Inhibitory activity against beta-glucosidase in almond. Also noted: species or system Prunus dulcis.
Assay [2] can be described thus: Inhibitory activity against beta-glucosidase in almond at pH 6.8. Also noted: species or system Prunus dulcis.
The nature of assay [3]: Inhibitory activity against beta-glucosidase in almond at pH 5.5. Also noted: species or system Prunus dulcis.

As usually defined, the IC50 is the midpoint of a concentration-inhibition curve. Lower therefore signals greater potency. Usually Ki stands for a dissociation constant, usually derived from enzyme kinetics or from competition with a known ligand.

As to `CCCCCCNC1CC(C)C(O)C(O)C1O` (stereo not drawn), the results for the half-maximal inhibitory concentration (IC50) (on Beta-galactosidase; in assay [1]) were 3700 nM and 730 nM, respectively.

With `CCCCCCCCCCN[C@H]1CC(C)[C@@H](O)C(O)[C@@H]1O` (stereo partly drawn), the values for the IC50 (against Beta-galactosidase; in assay [1]) were 1000 nM and 16600 nM, respectively.

At Beta-galactosidase, `CCCCCCCCCCNC1CC(C)C(O)C(O)C1O` (stereo not drawn) came in with a concentration for half-maximal inhibition (IC50) of 200 nM and a Ki of 9 nM. In assay [1], this molecule registered an IC50 of 2000 nM and an inhibition constant (Ki) of 400 nM.

Turning to `CCCCCCCCN[C@H]1CC(C)[C@@H](O)C(O)[C@@H]1O` (stereo partly drawn), the IC50 against Beta-galactosidase came to 3700 nM; in assay [1] it was 14700 nM.

On Beta-galactosidase, `CCCCCCCCNC1CC(C)C(O)C(O)C1O` (stereo not drawn) registered a concentration for half-maximal inhibition (IC50) of 700 nM and a Ki of 110 nM. Also, in assay [1], the concentration for half-maximal inhibition (IC50) is 1500 nM and the Ki worked out at 3200 nM.

Regarding `CC1C[C@H](NCCCCc2ccccc2)[C@@H](O)C(O)[C@@H]1O` (stereo partly drawn), the IC50 on Beta-galactosidase was found to be 2400 nM; in assay [1], 10200 nM.

On Beta-galactosidase, `CC1CC(NCCCCc2ccccc2)C(O)C(O)C1O` (stereo not drawn) came in with a 50% inhibitory concentration (IC50) of 900 nM and an inhibition constant Ki of 46 nM. In assay [1], this molecule came in with an IC50 of 1400 nM and an inhibition constant (Ki) of 1200 nM.

Consider `CCCCCCCCCCCCN[C@H]1CC(C)[C@@H](O)C(O)[C@@H]1O` (stereo partly drawn), for which the 50% inhibitory concentration (IC50) against Beta-galactosidase came out at 3000 nM; in assay [1], 3600 nM.

On to `C[C@@H]1CC(NCCc2ccccc2)[C@@H](O)[C@@H](O)[C@@H]1O` (stereo in doubt), for which the results for the concentration for half-maximal inhibition (IC50) (on Beta-galactosidase; in assay [1]) were 5700 nM and 380 nM, respectively. Further, the Ki was found to be 57 nM in assay [1], 57 nM in assay [2] and 390 nM in assay [3].

`C[C@@H]1CC(NCCc2ccccc2)[C@@H](O)[C@@H](O)[C@@H]1O` (stereo in doubt; 9e (D)) showed an inhibition constant Ki in assay [2] of 110 nM.
